# Results published in patent publication US4123456A, “Novel 11-hydroxy-9-keto-5,6-cis-13,14-cis-prostadienoic acid derivatives” (American Cyanamid Company, priority 1977, dated 1978).
# Key:
# [1] = test system: gastric acid secretion; experiment: gastric acid secretion inhibition, "Shay rat" procedure; format: in vivo, rats (male, CFE strain); conditions: intraduodenal dose 100 mg./kg. of body weight; 20% or more considered active
# Description: The novel compounds of the present invention are also effective inhibitors of gastric acid secretion and of ulcer development in experimental animals, and thus are potentially valuable as agents for the control of gastric acid secretion and of gastric erosion and an anti-ulcer agents. Gastric acid secretion inhibitory action is usually measured by the "Shay rat" procedure^(1,2) with some modifications as follows.
# The rats (male, CFE strain) were starved for 48 hours (water was given ad libitum) to permit evacuation of stomach contents. On the morning of the experiment, under ether anesthesia, the abdominal region was shaved and a midline incision (1-1 1/2") was made with a scapel. […]
# The abdominal cavity was exposed by cutting with scissors and the esophagus close to the stomach was clamped off with a hemostat, the stomach was removed by cutting above the hemostat (the esophagus was cut) and between the two sutures. […] The supernatant was collected, volume measured and recorded, 2 drops of a phenolphthalein indicator (1% in 95% ethanol) were added and the solution was titrated with 0.02N NaOH (or with 0.04N NaOH when large volumes of stomach contents were encountered) to pH 8.4 (because of usual coloring of the stomach contents, phenolphthalein was only used to permit visual indication that the end point was near) and the amount of acid present was calculated. […]
# [2] = test system: ulcerogenic properties of indomethacin; experiment: protection against the ulcerogenic properties of indomethacin; format: in vivo, Rats; conditions: 2.5 or lower considered active
# Description: The compounds of this invention provide protection against the ulcerogenic properties of indomethacin. This assay was carried out in the following manner.
# Rats were starved for 48 hours (water was given ad libitum). Indomethacin (20 mg./kg. of body weight) was administered by the subutaneous route and one-half the dose of the test compound was administered by gavage at the same time. After 3 hours, the second half of the test compound was administered also by Gavage. Five hours after the administration of indomethacin the animals were decapitated and the stomachs removed. The stomachs were washed with distilled water, blotted on gauze, cut along the larger curvature, and the contents rinsed with distilled water. The stomachs were spread out, pinned on a cork and visualized under magnifying glass for ulcers. The criteria for scoring of ulcers was as previously reported. [Abdel-Galil et al. Brit. J. Pharmac. Chemotherapy 33:1-14 (1968)].
# 1 Petechial hemmorhage or pin point ulcer
# 3 Many ulcers, a few large
# 4 Many ulcers, mainly large
# Control animals treated with indomethacin but not test compound consistently give scores of about 3.0-3.5. Control animals treated with neither indomethacin nor test compound give scores of about 0.5-0.8. Compounds producing a score of 2.5 or lower are considered to be active.
# [3] = total oral dose 25 mg./kg., control score 3.2
smiles,measurement,setting,value
"CCCCCC(O)/C=C/[C@H]1CCC(=O)[C@@H]1CCCCC(C)(C)CC(=O)O (relative stereo) [9-oxo-15-hydroxy-3,3-dimethyl-13-trans-prostenoic acid]",Percent Inhibition of gastric acid secretion,[1],51%
CCCCC[C@@H](O)/C=C/[C@H]1CCC(=O)[C@@H]1CCCCSCC(=O)O (relative stereo) [9-oxo-3-thia-15-epi-hydroxy-13-trans-prostenoic acid],"Score, Treated",[2]; [3],2.3
CCCCCC(O)/C=C/[C@H]1CCC(=O)[C@]1(C)CCCCCCC(=O)O (relative stereo) [8β-methyl-9-oxo-15-hydroxy-13-trans-prostenoic acid],"Score, Treated","[2]; total oral dose 12.5 mg./kg., control score 3.0",2.0
CCCCCC(O)/C=C/[C@H]1CCC(=O)[C@@H]1CCCCSCC(=O)O (relative stereo) [9-oxo-15-hydroxy-3-thia-13-trans-prostenoic acid],"Score, Treated",[2]; [3],1.8
CCCCCC(O)/C=C/[C@H]1CCC(=O)[C@@H]1CCCCCC(CC)C(=O)O (relative stereo),"Score, Treated","[2]; total oral dose 50 mg./kg., control score 3.0",2.2
"CCCCCC(O)/C=C\[C@H]1CCC(=O)[C@@H]1CCCCCCC(=O)O (relative stereo) [9-oxo-15-hydroxy-13-cis-prostenoic acid, 15-hydroxy-9-oxo-13-cis-prostenoic acid]","Score, Treated","[2]; total oral dose 100 mg./kg., control score 3.0",1.3
CCCCC(CC)C(O)/C=C/[C@H]1CCC(=O)[C@@H]1CCCCCCC(=O)O (relative stereo) [9-oxo-15-hydroxy-16-ethyl-13-trans-prostenoic acid],"Score, Treated",[2]; [3],1.7
